# Earlier results as cited in patent EP1323421A1 (priority 2001, dated 2003).
# Like-named read-outs stand apart in the source and are kept apart here.
# Experiments:
# [1] = not given; remark: listed apart in the source
# [2] = in vivo
# [3] = not given; remark: listed apart in the source
# plasma proteins = conditions: mainly to alpha and beta globulins
# [4] = intravenous single dose of about 0.3 mg
smiles,measurement,setting,value
"CO[C@]12CC[C@@]3(C[C@@H]1[C@](C)(O)C(C)(C)C)[C@H]1Cc4ccc(O)c5c4[C@@]3(CCN1CC1CC1)[C@H]2O5 [buprenorphine, 21-cyclopropyl-7.varies.-[(S)-1-hydroxy-1,2,2-trimethylpropyl]-6,14-endo-e thano-6,7,8,14-tetrahydrooripavine]",Tmax,0.4 mg sublingual dose,210.+-.40 minutes
same,systemic availability,0.4 mg sublingual dose,57.7%
same,Tmax,0.8 mg sublingual dose,192.+-.49 minutes
same,systemic availability,0.8 mg sublingual dose,54.1%
same,Total plasma clearance,conscious postoperative patients,approximately 1.28 I/minute
same,hepatic extraction ratio,in vivo,approximately 1
same,Oral bioavailability,"in vivo, po",~15%
same,mean peak plasma buprenorphine concentrations,intramuscular second 0.3-mg dose 3 hours after the initial intravenous dose,about 3.6 ng/ml
same,plasma concentrations,"intramuscular second 0.3-mg dose, after about 3 hours",about 0.4 ng/ml
same,plasma concentrations,"intravenous about 0.3 mg, after about 5 minutes",about 9 ng/ml
same,plasma concentrations,"intravenous about 0.3 mg, after about 3 hours",about 0.4 ng/ml
same,mean peak plasma drug concentrations,[4],about 18 ng/ml
same,time of mean peak plasma drug concentrations,[4],≤ 2 min
same,time to highest concentrations in the liver,[1]; intramuscular administration in rats,≤ 40 min
same,time to highest concentrations in the liver,[1]; oral administration in rats,≤ 10 min
same,analgesic potency relative to meperidine,[2],about 600 times
same,analgesic potency relative to pentazocine,[2],about 200 times
same,mean duration of analgesia,[2],six
same,influence on the function of bladder or urethra,"[3]; epidural application, 4 µg/kg (Batra) or 2 µg/kg (Drenger [with dogs])",does not have a significant influence
same,cases showing urinary retention,"[3]; i.v. application of 0.3 mg, patients of approx. 70 kg (4.3 µg/kg), Malinovsky",5 out of 10
same,urinary retention,"[3]; sublingual application of 400µg (~ 5.7 µg/kg), case shown by Murray",urinary retention was seen
same,bound to plasma proteins,plasma proteins,approximately 96%
